IC50 data for 3 compounds are collected here from ChEMBL document CHEMBL3886248, “Selective androgen receptor modulators” (2015).

The assay concerns the target T1, Androgen receptor (Rattus norvegicus, UniProt P15207).
T1 sequence (P15207 whole entry): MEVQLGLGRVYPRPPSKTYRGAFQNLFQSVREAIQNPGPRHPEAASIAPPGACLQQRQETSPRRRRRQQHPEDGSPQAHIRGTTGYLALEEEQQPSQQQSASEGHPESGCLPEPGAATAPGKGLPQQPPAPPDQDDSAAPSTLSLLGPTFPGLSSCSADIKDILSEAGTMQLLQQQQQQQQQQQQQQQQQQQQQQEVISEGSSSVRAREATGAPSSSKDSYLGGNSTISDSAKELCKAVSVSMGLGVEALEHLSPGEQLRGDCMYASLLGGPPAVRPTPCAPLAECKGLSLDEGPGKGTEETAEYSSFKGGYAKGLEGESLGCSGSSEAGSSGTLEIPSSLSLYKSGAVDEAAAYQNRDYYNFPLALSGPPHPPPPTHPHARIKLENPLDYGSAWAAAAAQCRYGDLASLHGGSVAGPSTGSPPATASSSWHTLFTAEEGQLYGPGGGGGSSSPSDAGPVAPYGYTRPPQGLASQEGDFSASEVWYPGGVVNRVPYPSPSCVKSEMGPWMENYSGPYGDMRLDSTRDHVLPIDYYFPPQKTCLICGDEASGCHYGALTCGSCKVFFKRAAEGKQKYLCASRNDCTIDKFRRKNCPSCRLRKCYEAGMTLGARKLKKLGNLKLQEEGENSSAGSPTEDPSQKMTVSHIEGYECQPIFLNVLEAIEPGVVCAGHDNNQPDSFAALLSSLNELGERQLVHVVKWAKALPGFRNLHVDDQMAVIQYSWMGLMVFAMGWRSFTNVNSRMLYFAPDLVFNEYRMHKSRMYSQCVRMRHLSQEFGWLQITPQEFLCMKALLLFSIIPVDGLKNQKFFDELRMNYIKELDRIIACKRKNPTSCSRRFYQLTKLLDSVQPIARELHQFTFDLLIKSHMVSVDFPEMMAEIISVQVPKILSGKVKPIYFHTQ
The assay is described as follows: The assay was performed as specified by the manufacturer (Invitrogen, Madison, Wis.). Briefly, 1 ul of 10 mM compound was added to 500 ul of AR screening buffer in a 1.5 ml eppendorf tube to make a 2x10E-5M stock. 10-fold serial dilutions of the test compounds were prepared ranging in concentration from 10E-5M to 10E-12M. Each dilution was added in triplicate to a black 384-microtiter plate. The test compounds will be diluted 2-fold in the final reaction. 2x AR-Fluormone complex was prepared with 2 nM Flourmone AL Green and 30 nM AR. 25 ul of 2x complex was aliquoted to each reaction well, such that the final reaction volume was 50 ul per well.
On to `C[C@@H]1OC(=O)N(c2ccc(C#N)c(C(F)(F)F)c2)[C@H]1[C@H](O)C(F)(F)F`, for which the midpoint of inhibition, the IC50, lay at 4 nM.

In the case of `Cc1c(N2C(=O)OC[C@@H]2[C@@H](O)C(F)(F)F)ccc(C#N)c1C(F)(F)F`, the IC50 is > 1000 nM.

Turning to `C[C@@H]1OC(=O)N(c2ccc(C#N)c(C(F)(F)F)c2)[C@H]1[C@@H](O)C(F)(F)F`, the 50% inhibitory concentration (IC50) is 72 nM. That is a double-digit nanomolar value.
